The text below walks through data of patent US8895750B2, “Heteroaromatic compounds as BTK inhibitors” (Boehringer Ingelheim International GmbH, priority 2013, dated 2014).

This experiment concerns the target T1, full-length human His-tagged BTK (Homo sapiens, UniProt Q06187).
T1 construct: 6 nM of full-length human His-tagged BTK (Life Technologies cat #PV3587); His; purchased Life Technologies PV3587
Put plainly: BTK HTRF assay (Cisbio KinEASE-TK). Particulars: 6 nM BTK, 15 min preincubation at 28° C., 1 uM TK substrate-biotin, 30 uM ATP. Type of experiment: biochemical. The protocol:
An HTRF assay (Cisbio KinEASE-TK cat #62TK0PEC) was performed to quantitate the ability of test compounds to inhibit BTK mediated phosphorylation of substrate. Assays were assembled in 384 well plates where 6 nM of full-length human His-tagged BTK (Life Technologies cat #PV3587) and test compound at varying concentrations were preincubated for 15 minutes at 28° C. Then, 1 uM of TK substrate-biotin and 30 uM ATP were added and incubated for an additional 30 minutes at 28° C. Phospohrylation was detected by adding 62.5 nM Streptavidin-XL665 and TK-Antibody Cryptate diluted 1:100 in HTRF detection buffer (Cisbio cat #62SDBRDF) and incubated for 60 minutes at RT. The plate was read on an Envision plate reader and the fluoresence is measured at 620 nm (cryptate) and 665 nm (XL665). A ratio is calculated (665/620) and converted to POC relative to control and blank wells.
50 mM HEPES (Invitrogen #15630), 0.01% Brij-35 (sigma #B4184), 10 mM MgC12 (Sigma M1028), 1 mM EGTA (Ambion AM9262) and 100 uM sodium orthovanedate (Sigma S6508), 1 mM DTT (Sigma D5545) and 10 nM supplement enzyme buffer (Cisbio cat#61SEBALB).
For orientation: In TR-FRET formats the signal depends on donor and acceptor labels being close together.

T1 sequence (Q06187 whole entry): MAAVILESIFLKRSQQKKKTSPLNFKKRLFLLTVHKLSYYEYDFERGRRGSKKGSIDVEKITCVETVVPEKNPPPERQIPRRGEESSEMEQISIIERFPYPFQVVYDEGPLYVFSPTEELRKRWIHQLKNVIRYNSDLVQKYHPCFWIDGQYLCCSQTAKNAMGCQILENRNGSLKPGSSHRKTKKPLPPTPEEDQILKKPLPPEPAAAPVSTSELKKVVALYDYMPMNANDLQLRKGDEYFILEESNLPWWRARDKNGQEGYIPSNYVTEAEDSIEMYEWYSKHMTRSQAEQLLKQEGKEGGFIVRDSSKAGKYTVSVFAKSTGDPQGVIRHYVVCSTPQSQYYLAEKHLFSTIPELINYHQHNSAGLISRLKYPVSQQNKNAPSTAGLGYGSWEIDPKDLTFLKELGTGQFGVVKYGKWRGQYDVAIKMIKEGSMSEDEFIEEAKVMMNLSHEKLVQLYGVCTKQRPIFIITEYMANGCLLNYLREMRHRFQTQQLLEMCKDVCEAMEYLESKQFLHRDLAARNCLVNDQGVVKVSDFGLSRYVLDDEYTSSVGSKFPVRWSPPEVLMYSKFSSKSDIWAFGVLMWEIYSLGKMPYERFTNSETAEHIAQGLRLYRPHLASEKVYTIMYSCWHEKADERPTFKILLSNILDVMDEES

A word on the IC50: it is the concentration that gives 50% inhibition. A higher IC50 goes with a need for much substance. For `CN(C)C/C=C/C(=O)NC[C@@H]1CCCN1c1nc(-c2ccc(Oc3ccccc3)cc2)c(C(N)=O)s1` [Example 43], the IC50 is 52 nM.
Compound `CC#CC(=O)N1CCN(c2nc(-c3ccc(Oc4ccccc4)cc3)c(C(N)=O)s2)CC1C` (stereo not shown) [Example 25] had an IC50 of 1 nM.
In the case of `C=CC(=O)N1[C@@H]2CC[C@H]1CN(c1nc(-c3ccc(Oc4ccccc4)cc3)c(C(N)=O)s1)C2` [Example 19] it was 0.48 nM; in that of `C=CC(=O)N[C@@H]1CCCN(c2nc(-c3ccc(Oc4ccccc4)cc3)c(C(N)=O)s2)C1` [Example 5], 13 nM; in that of `CC#CC(=O)N1CCCC12CCN(c1nc(-c3ccc(Oc4ccccc4)cc3)c(C(N)=O)s1)CC2` [Example 24], 150 nM.
In the case of `CC#CC(=O)N1CCN(c2nc(-c3cccc(C(=O)Nc4ccccc4)c3)c(C(N)=O)s2)CC1` [Example 46], the IC50 was above 1000 nM.
The figure for `C=CC(=O)N1CC2(C1)CN(c1nc(-c3ccc(Oc4ccccc4)cc3)c(C(N)=O)s1)C2` [Example 12] is 4.1 nM.
In the case of `C/C=C/C(=O)N1CC2(C1)CN(c1nc(-c3ccc(Oc4ccccc4)cc3)c(C(N)=O)s1)C2` [Example 14] it was above 1000 nM; in that of `CC#CC(=O)N1CCN(c2nc(-c3ccc(Oc4ccccc4)cc3)c(C(N)=O)s2)CC1` [Example 7], 0.67 nM; in that of `CC#CC(=O)N1CCN(c2nc(-c3ccc(Br)cc3)c(C(N)=O)s2)CC1` [Example 30], 73 nM.
`C[C@H](Cl)C(=O)N1CC2(C1)CN(c1nc(-c3ccc(Oc4ccccc4)cc3)c(C(N)=O)s1)C2` [Example 20] yielded an IC50 of 350 nM. This IC50 lies about 4.8-fold higher than the previous one.
Consider `C=CC(=O)N1CCN(c2nc(-c3ccc(Oc4ccccc4)cc3)c(C(N)=O)s2)CC1` [Example 6], for which the midpoint of inhibition, the IC50, lay at 0.3 nM.
`NC(=O)c1sc(N2CC3(CN(C(=O)/C=C/CN4CCOCC4)C3)C2)nc1-c1ccc(Oc2ccccc2)cc1` [Example 15] registered an IC50 above 1000 nM.
The compound `CC#CC(=O)N1CCN(c2nc(-c3ccc(Oc4ccccc4)cn3)c(C(N)=O)s2)CC1` [Example 45] displayed an IC50 of 40 nM.
`C=CC(=O)N1CCN(c2nc(-c3ccc(Oc4ccccc4)nc3)c(C(N)=O)s2)CC1` [Example 32] displayed an IC50 of 17 nM.
In turn, `CN(C)C/C=C/C(=O)NC[C@H]1CCCN1c1nc(-c2ccc(Oc3ccccc3)cc2)c(C(N)=O)s1` [Example 44] yielded an IC50 of 560 nM.
For `CC#CC(=O)N1[C@@H]2CC[C@H]1CN(c1nc(-c3ccc(Oc4ccccc4)cc3)c(C(N)=O)s1)C2` [Example 18], the IC50 was 0.62 nM. Against the preceding compound, the IC50 is about 900-fold lower.
In the case of `CC#CC(=O)N1CCN(c2nc(-c3ccc(Oc4ccccc4)cc3)c(C(N)=O)s2)[C@@H](C)C1` [Example 21], it took 1.2 nM to reach half-maximal inhibition (IC50).
`NC(=O)c1sc(N2CCN(C(=O)C#CCN3CCOCC3)CC2)nc1-c1ccc(Oc2ccccc2)cc1` [Example 42] displayed an IC50 of 0.7 nM.
In turn, `CC#CC(=O)N1CCN(c2nc(-c3ccc(S(C)(=O)=O)cc3)c(C(N)=O)s2)CC1` [Example 38] yielded a 50% inhibitory concentration (IC50) above 1000 nM.
As to `CC#CC(=O)NC[C@H]1CCCN1c1nc(-c2ccc(Oc3ccccc3)cc2)c(C(N)=O)s1` [Example 41], the 50% inhibitory concentration (IC50) came to 30 nM.
Compound `CN(C)CCC(=O)N1CCN(c2nc(-c3ccc(Oc4ccccc4)cc3)c(C(N)=O)s2)CC1` [Example 26] had an IC50 of 69 nM.
The compound `C=CC(=O)N1CCCC12CCN(c1nc(-c3ccc(Oc4ccccc4)cc3)c(C(N)=O)s1)CC2` [Example 23] displayed an IC50 of 43 nM. This IC50 lies about 1.6-fold lower than the previous one.
Take `CCC(=O)N1CC2(C1)CN(c1nc(-c3ccc(Oc4ccccc4)cc3)c(C(N)=O)s1)C2` [Example 31]: the IC50 was above 1000 nM.
`CC#CC(=O)N[C@@H]1CCCN(c2nc(-c3ccc(Oc4ccccc4)cc3)c(C(N)=O)s2)C1` [Example 4] had an IC50 of 95 nM.
In turn, `C=CC(=O)N1CCN(c2nc(-c3ccc(Oc4ccccc4)cc3)c(C(N)=O)s2)[C@@H](C)C1` [Example 17] showed an IC50 of 0.87 nM.
Turning to `CC#CC(=O)N1C[C@@H]2C[C@H]1CN2c1nc(-c2ccc(Oc3ccccc3)cc2)c(C(N)=O)s1` [Example 16], the IC50 is 1.2 nM.
Consider `CN(C)C/C=C/C(=O)N1CCN(c2nc(-c3ccc(Oc4ccccc4)cc3)c(C(N)=O)s2)CC1` [Example 22], for which the IC50 came to 2 nM. This IC50 lies about 1.7-fold higher than the previous one.
Turning to `C=CC(=O)N1CCN(c2nc(-c3cnn(Cc4ccccc4)c3)c(C(N)=O)s2)CC1` [Example 27], the IC50 was found to be 710 nM.
In the case of `CC#CC(=O)N1CCN(c2nc(-c3ccc(Oc4ccccc4)nc3)c(C(N)=O)s2)CC1` [Example 33] it was 180 nM; in that of `C=CC(=O)N(C)C1CCN(c2nc(-c3ccc(Oc4ccccc4)cc3)c(C(N)=O)s2)CC1` [Example 2], 4.8 nM.
For `CC#CC(=O)N(C)C1CCN(c2nc(-c3ccc(Oc4ccccc4)cc3)c(C(N)=O)s2)CC1` [Example 3], half-maximal inhibition (IC50) was put at 2.6 nM.
In the case of `CC#CC(=O)N1CCN(c2nc(-c3cnn(Cc4ccccc4)c3)c(C(N)=O)s2)CC1` [Example 28] it was above 1000 nM.
Turning to `C=CC(=O)N1CCN(c2nc(-c3ccc(Br)cc3)c(C(N)=O)s2)CC1` [Example 29], the IC50 came to 6.6 nM. This lies in the single-digit nanomolar range.
`CN(C)C/C=C/C(=O)N1CC2(CCN(c3nc(-c4ccc(Oc5ccccc5)cc4)c(C(N)=O)s3)C2)C1` [Example 10] returned an IC50 of 110 nM.
The figure for `CC#CC(=O)NC[C@@H]1CCCN1c1nc(-c2ccc(Oc3ccccc3)cc2)c(C(N)=O)s1` [Example 36] is 14 nM; for `C/C=C/C(=O)N1CCN(c2nc(-c3ccc(Oc4ccccc4)nc3)c(C(N)=O)s2)CC1` [Example 34] it is 700 nM.
In turn, `CN(C)C/C=C/C(=O)N1CC2(C1)CN(c1nc(-c3ccc(Oc4ccccc4)cc3)c(C(N)=O)s1)C2` [Example 13] gave an IC50 of 510 nM.
Take `NC(=O)c1sc(N2CCN(C(=O)C#CCO)CC2)nc1-c1ccc(Oc2ccccc2)cc1` [Example 39]: the IC50 was determined as 0.69 nM.
`CC(C)(O)C#CC(=O)N1CCN(c2nc(-c3ccc(Oc4ccccc4)cc3)c(C(N)=O)s2)CC1` [Example 37] displayed an IC50 of 0.65 nM.
Take `C=CC(=O)NC[C@H]1CCCN1c1nc(-c2ccc(Oc3ccccc3)cc2)c(C(N)=O)s1` [Example 40]: the IC50 turned out to be 120 nM.
`C=CC(=O)NC[C@@H]1CCCN1c1nc(-c2ccc(Oc3ccccc3)cc2)c(C(N)=O)s1` [Example 35] had an IC50 of 11 nM.
As for `C=CC(=O)N1CC2(CCN(c3nc(-c4ccc(Oc5ccccc5)cc4)c(C(N)=O)s3)C2)C1` [Example 8], the IC50 is 5.6 nM.
`CC#CC(=O)N1CC2(C1)CN(c1nc(-c3ccc(Oc4ccccc4)cc3)c(C(N)=O)s1)C2` [Example 11] yielded an IC50 of 8.8 nM. Against the preceding compound, the IC50 is about 1.6-fold higher.
Take `C=CC(=O)N1CCC2(C1)CN(c1nc(-c3ccc(Oc4ccccc4)cc3)c(C(N)=O)s1)C2` [Example 1]: the IC50 turned out to be 8.5 nM.
In the case of `CC#CC(=O)N1CC2(CCN(c3nc(-c4ccc(Oc5ccccc5)cc4)c(C(N)=O)s3)C2)C1` [Example 9] it was 4.3 nM.
